Like-named read-outs stand apart in the source and are kept apart here.
Tests used:
CHO-K1 cells = experiment: cytotoxicity using CHO-K1 cells; assay type: cell-based, Chinese hamster; conditions: Cricetulus griseus, CHO-K1 ovary sane cell line
Procedure: (§1) Cytotoxicity was tested using CHO-K1 cells and anti-proliferative activity was examined using HT29 cells.
(§2) The effects were compared with Doxorubicin and Sodium butyrate.

HT29 cells = experiment: anti-proliferative activity using HT29 cells; assay type: cell-based, human
Procedure: as §1, §2

Structure (SMILES)	IC50 (CHO-K1 cells)	IC50 (HT29 cells; HT-29, HT29 human colon adenocarcinoma, read-out: IC50 (μM) for HT29)	IC50 (HT29 cells; Homo sapiens, HT-29, read-out: IC50 (μM) for HT29)
COc1cccc2c1C(=O)c1c(O)c3c(c(O)c1C2=O)C[C@@](O)(C(=O)CO)C[C@@H]3O[C@H]1C[C@H](N)[C@H](O)[C@H](C)O1 [Doxorubicin]	1.99 µM	1.32 µM	–
CCCC(=O)[O-].[Na+] [Sodium butyrate]	–	–	4890 µM
